Key:
[1] = tested on: H2O2 (ROS) production of BAT mitochondria; experiment: Fluorometric detection of hydrogen peroxide production (Amplex UltraRed) in fresh BAT mitochondria; assay type: biochemical, rat; conditions: for ROS production on titration, all substrates tested: metformin 0–200 mM or phenformin 0–60 mM, pattern highly similar for all substrates
Procedure: (§1) We used interscapular brown adipose tissue (BAT) of four-week-old Wistar rats kept at 22°C under 12 h/12 h light/dark cycle on a standard diet and water supply ad libitum. All animal works were approved by the institutional ethics committee and were in accordance with the EU Directive 2010/63/EU for animal experiments. Mitochondria were isolated in STE medium (250 mM sucrose, 10 mM Tris–HCl, 1 mM EDTA, pH 7.4) and supplemented with BSA (10 mg/mL) by differential centrifugation. Quality of isolation was routinely checked by oxygraph, and fresh mitochondria were used for measurements of oxygen consumption and hydrogen peroxide production. Subsequently, frozen-thawed mitochondria were used for determination of enzymatic activities; as in such preparations, the integrity of mitochondrial membrane is disrupted and NADH has therefore access to the oxidation site of NDH. Also, freezing/thawing ensures that the membrane potential is not maintained.
Hydrogen peroxide production was determined fluorometrically by measuring oxidation of Amplex UltraRed (Thermo Fisher) essentially as before. Fluorescence of the Amplex UltraRed oxidation product was measured at 37°C using Tecan Infinite M200 multiwell fluorometer. Excitation/emission wavelengths were 544 nm (bandwidth 15 nm)/590 nm (bandwidth 30 nm). The assay was performed with 10 μg of mitochondrial protein in KCl-based medium (120 mM KCl, 3 mM HEPES, 5 mM KH2PO4, 3 mM MgSO4, 1 mM EGTA, 3 mg/mL BSA, pH 7.2) supplemented either with 10 mM pyruvate plus 2 mM malate, 10 mM succinate, or 10 mM GP. Amplex UltraRed was used at the final concentration of 50 μM with horseradish peroxidase (HRP) at 1 U/mL. Fluorescence signal from the well containing all substrates and inhibitors, but not mitochondria, was subtracted as a background for every experimental condition used. Background, caused mostly by autoxidation of the dye or nonenzymatic effect of inhibitors on apparent ROS production, varied between conditions from 0 to 1 pmol/s/mg and was uniform across respective titration points. Signal was calibrated using H2O2 at the final concentration of 0–5 μM, and H2O2 stock concentration was routinely checked by measuring its absorption at 240 nm.

[2] = tested on: NADH dehydrogenase (complex I, NDH); experiment: NDH enzyme activity (NADH oxidoreductase) in BAT mitochondria; assay type: biochemical, rat
Procedure: as §1, with “Also, freezing/thawing ensures that the membrane potential is not maintained.” left out
(§2) Activities of mitochondrial dehydrogenases were determined spectrophotometrically as NADH oxidoreductases (NDH, monitored at 340 nm, ε340 = 6.22 mM^−1·cm^−1) or CoQ1 oxidoreductases (SDH and mGPDH, monitored at 275 nm, ε275 = 13.6 mM^−1·cm^−1). […] The reaction was started by adding 100 μM NADH, 25 mM glycerophosphate (GP), or 25 mM succinate, respectively, and after 5–10 minutes, changes of absorbance were monitored at 30°C. Enzyme activities were expressed as pmol/s/mg protein.

[3] = tested on: pyruvate plus malate-supported oxygen consumption (NDH); experiment: Pyruvate plus malate-supported oxygen consumption of BAT mitochondria; assay type: biochemical, rat
Procedure: as §1
(§3) Oxygen consumption was measured at 30°C as described before using Oxygraph-2k (Oroboros, Austria). Measurements were performed in 2 mL of KCl medium (80 mM KCl, 10 mM Tris–HCl, 3 mM MgCl2, 1 mM EDTA, 5 mM K-Pi, pH 7.4) using 15–60 μg protein/mL of freshly isolated mitochondria. For measurements, 10 mM pyruvate plus 2 mM malate, 10 mM succinate, or 10 mM GP, respectively, were used. The oxygen consumption was expressed in pmol oxygen/s/mg protein.

[4] = biological target: T1, succinate dehydrogenase (SDH) (Rattus norvegicus, UniProt P21913+Q641Z9+Q6PCT8+Q920L2); experiment: SDH activity (succinate:CoQ1 oxidoreductase / succinate respiration) in BAT mitochondria; assay type: biochemical
T1 construct: from tissue; host or cells: mitochondria isolated from rat interscapular brown adipose tissue
Procedure: as §1, with “Subsequently, frozen-thawed mitochondria were used for determination of enzymatic activities; as in such preparations, the integrity of mitochondrial membrane is disrupted and NADH has therefore access to the oxidation site of NDH. Also, freezing/thawing ensures that the membrane potential is not maintained.” left out
as §2
Oxygen consumption was measured at 30°C as described before using Oxygraph-2k (Oroboros, Austria). […]

[5] = biological target: T2, mitochondrial glycerophosphate dehydrogenase (mGPDH) (Rattus norvegicus, UniProt P35571); experiment: mGPDH activity (glycerophosphate:CoQ1 oxidoreductase) in BAT mitochondria; assay type: biochemical
T2 construct: from tissue; host or cells: mitochondria isolated from rat interscapular brown adipose tissue
T2 sequence (P35571 43-727): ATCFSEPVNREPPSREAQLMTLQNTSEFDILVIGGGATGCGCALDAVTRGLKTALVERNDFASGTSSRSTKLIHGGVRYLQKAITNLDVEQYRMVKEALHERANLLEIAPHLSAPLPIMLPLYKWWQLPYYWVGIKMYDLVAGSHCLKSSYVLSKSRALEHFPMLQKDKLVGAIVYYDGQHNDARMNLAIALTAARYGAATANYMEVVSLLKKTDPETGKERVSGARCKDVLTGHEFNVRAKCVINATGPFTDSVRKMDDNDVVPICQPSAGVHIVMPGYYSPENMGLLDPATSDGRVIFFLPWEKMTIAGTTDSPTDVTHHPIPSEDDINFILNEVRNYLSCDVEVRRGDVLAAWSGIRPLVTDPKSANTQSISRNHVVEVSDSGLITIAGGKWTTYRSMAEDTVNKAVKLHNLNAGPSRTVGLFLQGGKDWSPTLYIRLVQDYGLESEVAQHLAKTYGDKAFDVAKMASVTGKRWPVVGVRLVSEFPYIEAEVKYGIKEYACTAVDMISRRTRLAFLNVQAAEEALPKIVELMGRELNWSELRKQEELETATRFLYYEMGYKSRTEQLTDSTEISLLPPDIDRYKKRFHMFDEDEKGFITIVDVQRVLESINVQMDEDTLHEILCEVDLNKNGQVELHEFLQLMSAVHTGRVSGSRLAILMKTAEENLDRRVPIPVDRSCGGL
Procedure: as §1, with “Also, freezing/thawing ensures that the membrane potential is not maintained.” left out
as §2

treated patients = conditions: cited from earlier work
[6] = reported values; cited from earlier work
[7] = tested on: respiration of BAT mitochondria (pyruvate plus malate, succinate, glycerophosphate); experiment: Polarographic oxygen consumption of isolated BAT mitochondria with substrates of NDH, SDH and mGPDH; assay type: biochemical, rat; conditions: at the same concentrations as enzyme inhibition (IC50 80 to 180 mM)
Procedure: as §1, §3

[8] = biological target: respiratory chain dehydrogenases NDH, SDH, and mGPDH; experiment: Enzyme activity assays of mitochondrial dehydrogenases in frozen-thawed BAT mitochondria (spectrophotometry); assay type: biochemical, rat; conditions: isolated BAT mitochondria, range over all three enzymes, read-out: IC50, inhibition of respiratory chain dehydrogenase enzyme activities (NDH, SDH, mGPDH)
Procedure: as §1, with “Also, freezing/thawing ensures that the membrane potential is not maintained.” left out
as §2

T1 sequence (Q920L2 35-656): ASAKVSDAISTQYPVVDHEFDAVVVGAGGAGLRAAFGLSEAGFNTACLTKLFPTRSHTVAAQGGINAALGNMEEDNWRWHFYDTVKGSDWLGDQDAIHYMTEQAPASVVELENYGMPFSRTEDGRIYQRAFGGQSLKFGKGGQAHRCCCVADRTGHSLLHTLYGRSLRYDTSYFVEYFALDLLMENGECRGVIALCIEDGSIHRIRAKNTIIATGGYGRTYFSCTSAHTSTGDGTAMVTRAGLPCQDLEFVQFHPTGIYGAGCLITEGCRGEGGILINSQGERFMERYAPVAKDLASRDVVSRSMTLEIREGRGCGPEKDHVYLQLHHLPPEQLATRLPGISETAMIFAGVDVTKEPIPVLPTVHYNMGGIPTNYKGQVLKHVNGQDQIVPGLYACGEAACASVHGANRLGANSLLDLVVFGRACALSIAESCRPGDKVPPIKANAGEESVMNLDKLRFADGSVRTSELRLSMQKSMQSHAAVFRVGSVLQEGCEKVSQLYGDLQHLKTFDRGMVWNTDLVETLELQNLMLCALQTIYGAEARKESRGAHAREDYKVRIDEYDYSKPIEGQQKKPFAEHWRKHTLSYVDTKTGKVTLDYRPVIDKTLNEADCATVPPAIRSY
T1 sequence (P21913 31-282): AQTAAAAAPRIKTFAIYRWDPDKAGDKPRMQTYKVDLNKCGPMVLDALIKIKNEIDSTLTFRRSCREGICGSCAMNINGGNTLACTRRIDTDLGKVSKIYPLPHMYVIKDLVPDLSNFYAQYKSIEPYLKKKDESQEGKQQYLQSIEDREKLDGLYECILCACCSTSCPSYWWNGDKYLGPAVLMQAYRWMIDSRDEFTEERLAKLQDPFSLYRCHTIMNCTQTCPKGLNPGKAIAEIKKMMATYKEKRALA
T1 sequence (Q641Z9 30-169 limits assumed): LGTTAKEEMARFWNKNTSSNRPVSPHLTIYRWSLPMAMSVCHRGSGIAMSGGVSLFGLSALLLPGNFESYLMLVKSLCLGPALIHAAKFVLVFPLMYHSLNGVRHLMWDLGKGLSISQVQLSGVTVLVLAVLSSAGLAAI
T1 sequence (Q6PCT8 57-159): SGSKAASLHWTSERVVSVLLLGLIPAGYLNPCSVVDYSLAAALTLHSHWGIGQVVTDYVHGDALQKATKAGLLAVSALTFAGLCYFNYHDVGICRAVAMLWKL

SMILES: C=C(C)[C@H]1Cc2c(ccc3c2O[C@@H]2COc4cc(OC)c(OC)cc4[C@@H]2C3=O)O1 [rotenone]
- Rate of H2O2 production with NADH-linked substrates ([1]; 10 mM pyruvate and 2 mM malate, 1 μM rotenone): increased the rate of H2O2 production
- Concentration of complete inhibition of complex I enzyme activity ([2]; BAT mitochondria): 500 nM
- Concentration of complete inhibition of pyruvate plus malate-supported oxygen consumption [3]: 500 nM

SMILES: O=C(O)CCC(=O)Nc1ccc(-c2nc3ccccc3[nH]2)cc1 [iGP-1]
- GP-dependent ROS production ([1]; 10 mM glycerophosphate, 100 μM iGP-1): inhibited
- IC50 ([4]; enzyme activity and oxygen consumption, 10 mM succinate (Figures 4(b) and 4(d)), read-out: IC50, nonspecific action on SDH): ~80 µM
- Concentration at which activity of mGPDH was abolished [5]: 50 µM

SMILES: COc1[nH]c(=O)c(C(=O)[C@@H](C)C[C@H](C)[C@@H](Cl)CCl)c(O)c1OC [atpenin A5]
- ROS production with low levels of succinate ([1]; 0.4 mM succinate, 0.5 μM atpenin A5): pronounced increase in ROS production
- Concentration of complete inhibition of SDH ([4]; succinate as a substrate): 20 nM

SMILES: [H]/N=C(/N)N/C(=N/[H])NCCc1ccccc1 [phenformin]
- ROS production on titration, all substrates tested [1]: dose-dependent increase in ROS production
- Adverse effect leading to discontinued use (treated patients): induction of lactic acidosis

SMILES: CN(C)C(=N)N=C(N)N [metformin, dimethyl biguanide]
- Concentration inside tumors [6]: 1000 to 10000 nM
- ROS production on titration, all substrates tested [1]: dose-dependent increase in ROS production
- Effect on respiration with pyruvate and malate, succinate and glycerophosphate [7]: inhibited respiration
- IC50 [8]: > 80000 µM
- Sensitivity of NDH activity to inhibitory action relative to SDH and mGPDH ([2]; metformin titration 0–200 mM, 100 μM NADH): most sensitive

— article PMC5569935, “Pleiotropic Effects of Biguanides on Mitochondrial Reactive Oxygen Species Production” (Oxidative Medicine and Cellular Longevity, 2017)
